We go through nine molecules from ChEMBL document CHEMBL5291721, “A preclinical secondary pharmacology resource illuminates target-adverse drug reaction associations of marketed drugs” (Nat Commun, 2023).

Assay [1] addresses T1, Prostaglandin G/H synthase 1 (Rattus norvegicus, UniProt Q63921).
T1 sequence (Q63921 whole entry): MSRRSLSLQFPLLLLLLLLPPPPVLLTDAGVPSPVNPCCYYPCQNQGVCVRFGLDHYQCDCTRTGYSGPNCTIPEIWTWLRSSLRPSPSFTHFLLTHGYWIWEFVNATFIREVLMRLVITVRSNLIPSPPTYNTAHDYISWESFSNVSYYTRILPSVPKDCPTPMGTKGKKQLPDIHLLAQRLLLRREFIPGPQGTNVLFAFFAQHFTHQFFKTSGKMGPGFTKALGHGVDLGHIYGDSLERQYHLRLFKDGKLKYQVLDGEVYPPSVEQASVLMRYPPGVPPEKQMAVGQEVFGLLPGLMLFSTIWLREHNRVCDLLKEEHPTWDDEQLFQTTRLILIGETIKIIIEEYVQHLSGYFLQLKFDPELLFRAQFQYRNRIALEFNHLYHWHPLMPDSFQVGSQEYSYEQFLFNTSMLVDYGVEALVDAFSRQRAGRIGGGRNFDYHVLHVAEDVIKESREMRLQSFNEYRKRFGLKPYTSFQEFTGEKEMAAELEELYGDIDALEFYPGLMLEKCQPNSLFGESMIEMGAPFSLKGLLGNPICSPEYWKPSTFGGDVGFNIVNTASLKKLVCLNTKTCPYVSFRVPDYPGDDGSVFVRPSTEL
The class given is functional.

Assay [2] deals with T2, Muscarinic acetylcholine receptor M2 (Homo sapiens, UniProt P08172).
T2 sequence (P08172 whole entry): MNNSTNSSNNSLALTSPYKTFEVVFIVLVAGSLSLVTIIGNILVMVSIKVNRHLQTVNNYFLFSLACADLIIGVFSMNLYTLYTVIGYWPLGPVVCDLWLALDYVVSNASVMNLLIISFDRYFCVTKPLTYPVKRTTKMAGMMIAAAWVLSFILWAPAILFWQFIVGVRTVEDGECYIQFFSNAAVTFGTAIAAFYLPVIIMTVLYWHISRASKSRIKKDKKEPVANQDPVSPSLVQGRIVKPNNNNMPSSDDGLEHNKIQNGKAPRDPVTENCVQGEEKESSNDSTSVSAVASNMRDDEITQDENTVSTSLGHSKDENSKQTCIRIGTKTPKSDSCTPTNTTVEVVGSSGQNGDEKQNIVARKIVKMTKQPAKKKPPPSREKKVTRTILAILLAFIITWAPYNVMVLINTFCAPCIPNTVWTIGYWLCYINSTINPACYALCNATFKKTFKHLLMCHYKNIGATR
The class given is functional, cell-based.

For assay [3], the target named is Histamine H1 receptor (Homo sapiens, UniProt P35367).
Chain of Histamine H1 receptor (P35367 whole entry): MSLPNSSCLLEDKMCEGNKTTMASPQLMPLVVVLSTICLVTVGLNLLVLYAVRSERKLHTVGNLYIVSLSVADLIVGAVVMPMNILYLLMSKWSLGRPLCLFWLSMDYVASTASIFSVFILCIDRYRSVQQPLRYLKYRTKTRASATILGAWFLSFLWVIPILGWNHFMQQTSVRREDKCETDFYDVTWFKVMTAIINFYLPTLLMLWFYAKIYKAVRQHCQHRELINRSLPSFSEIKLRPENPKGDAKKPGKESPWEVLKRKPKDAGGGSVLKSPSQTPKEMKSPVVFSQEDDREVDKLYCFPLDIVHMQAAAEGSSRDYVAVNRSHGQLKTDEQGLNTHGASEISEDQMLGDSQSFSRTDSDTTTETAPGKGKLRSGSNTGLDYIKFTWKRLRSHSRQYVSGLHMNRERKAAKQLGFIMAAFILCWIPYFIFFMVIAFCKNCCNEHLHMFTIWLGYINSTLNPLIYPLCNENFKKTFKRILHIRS
For assay [4], the target named is T3, Equilibrative nucleoside transporter 1 (Homo sapiens, UniProt Q99808).
T3 sequence (Q99808 whole entry): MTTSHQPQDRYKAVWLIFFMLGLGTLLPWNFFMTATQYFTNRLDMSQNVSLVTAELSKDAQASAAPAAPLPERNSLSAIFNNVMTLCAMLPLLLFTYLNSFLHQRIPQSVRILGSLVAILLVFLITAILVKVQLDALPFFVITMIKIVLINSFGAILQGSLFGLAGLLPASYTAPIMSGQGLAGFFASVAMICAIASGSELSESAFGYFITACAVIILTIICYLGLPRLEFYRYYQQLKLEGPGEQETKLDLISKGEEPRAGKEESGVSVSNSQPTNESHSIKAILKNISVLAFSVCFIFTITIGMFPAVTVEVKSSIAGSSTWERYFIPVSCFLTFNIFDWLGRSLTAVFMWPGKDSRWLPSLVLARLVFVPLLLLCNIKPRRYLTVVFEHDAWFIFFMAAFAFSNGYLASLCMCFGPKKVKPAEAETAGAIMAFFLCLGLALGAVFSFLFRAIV

The target in assay [5] is 5-hydroxytryptamine receptor 2B (Homo sapiens, UniProt P41595). The class given is functional, cell-based.
Chain of 5-hydroxytryptamine receptor 2B (P41595 whole entry): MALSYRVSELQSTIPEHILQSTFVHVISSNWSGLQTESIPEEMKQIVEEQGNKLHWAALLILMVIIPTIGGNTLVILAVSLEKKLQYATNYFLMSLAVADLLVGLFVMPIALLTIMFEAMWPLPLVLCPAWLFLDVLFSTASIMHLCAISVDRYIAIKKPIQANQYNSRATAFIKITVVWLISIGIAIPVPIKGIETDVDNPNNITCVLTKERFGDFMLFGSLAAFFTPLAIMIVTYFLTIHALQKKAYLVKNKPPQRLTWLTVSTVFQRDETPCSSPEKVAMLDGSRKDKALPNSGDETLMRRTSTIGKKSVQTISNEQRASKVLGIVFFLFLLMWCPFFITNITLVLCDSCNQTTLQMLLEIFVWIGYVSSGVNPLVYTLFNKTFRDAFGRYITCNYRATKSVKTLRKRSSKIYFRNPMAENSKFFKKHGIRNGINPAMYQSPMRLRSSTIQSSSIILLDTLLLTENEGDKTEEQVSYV
Assay [6] concerns the target Beta-2 adrenergic receptor (Homo sapiens, UniProt P07550).
For assay [7], the target named is 5-hydroxytryptamine receptor 2A (Homo sapiens, UniProt P28223). The class given is functional, cell-based.
Chain of 5-hydroxytryptamine receptor 2A (P28223 whole entry): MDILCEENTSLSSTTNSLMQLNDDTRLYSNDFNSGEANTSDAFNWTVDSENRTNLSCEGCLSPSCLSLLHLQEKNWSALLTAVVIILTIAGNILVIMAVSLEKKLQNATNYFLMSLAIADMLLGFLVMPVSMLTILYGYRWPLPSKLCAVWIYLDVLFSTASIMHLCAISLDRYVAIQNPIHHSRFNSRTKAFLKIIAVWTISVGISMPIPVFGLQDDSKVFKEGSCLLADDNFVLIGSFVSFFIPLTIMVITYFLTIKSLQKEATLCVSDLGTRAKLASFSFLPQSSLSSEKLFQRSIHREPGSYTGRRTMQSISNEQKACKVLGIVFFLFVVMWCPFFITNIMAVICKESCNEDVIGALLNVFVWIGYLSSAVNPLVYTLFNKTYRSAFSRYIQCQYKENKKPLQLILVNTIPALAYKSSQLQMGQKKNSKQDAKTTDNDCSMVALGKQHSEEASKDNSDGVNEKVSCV
Assay [8] concerns the target T4, Alpha-2A adrenergic receptor (Homo sapiens, UniProt P08913).
T4 sequence (P08913 whole entry): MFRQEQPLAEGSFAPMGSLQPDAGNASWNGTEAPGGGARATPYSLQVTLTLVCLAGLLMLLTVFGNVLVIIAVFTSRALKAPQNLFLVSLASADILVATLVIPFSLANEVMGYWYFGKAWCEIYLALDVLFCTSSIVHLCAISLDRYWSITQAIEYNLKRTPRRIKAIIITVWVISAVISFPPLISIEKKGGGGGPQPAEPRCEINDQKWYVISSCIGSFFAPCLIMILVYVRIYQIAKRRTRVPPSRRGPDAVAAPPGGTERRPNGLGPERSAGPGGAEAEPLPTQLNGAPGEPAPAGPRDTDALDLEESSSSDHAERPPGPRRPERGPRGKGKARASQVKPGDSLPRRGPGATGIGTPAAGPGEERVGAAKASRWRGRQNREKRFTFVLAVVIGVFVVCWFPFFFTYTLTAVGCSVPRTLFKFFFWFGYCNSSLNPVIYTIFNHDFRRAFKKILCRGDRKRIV
The class given is functional, cell-based.

Assay [9] addresses Vasopressin V2 receptor (Homo sapiens, UniProt P30518).
For assay [10], the target named is T2, Muscarinic acetylcholine receptor M2. The class given is functional, cell-based. The source holds these as a separate data set.
Assay [11] deals with T5, B2 bradykinin receptor (Homo sapiens, UniProt P30411).
T5 sequence (P30411 whole entry): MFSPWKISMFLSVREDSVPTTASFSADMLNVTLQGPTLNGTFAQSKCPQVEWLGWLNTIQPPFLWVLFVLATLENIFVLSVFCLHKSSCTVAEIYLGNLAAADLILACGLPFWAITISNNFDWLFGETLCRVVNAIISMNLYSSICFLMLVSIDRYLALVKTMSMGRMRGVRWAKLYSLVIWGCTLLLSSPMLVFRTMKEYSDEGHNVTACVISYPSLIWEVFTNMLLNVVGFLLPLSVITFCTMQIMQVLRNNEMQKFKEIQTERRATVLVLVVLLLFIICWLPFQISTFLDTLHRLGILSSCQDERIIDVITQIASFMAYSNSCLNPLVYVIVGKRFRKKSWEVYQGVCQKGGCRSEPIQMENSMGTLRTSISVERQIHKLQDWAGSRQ

For assay [12], the target named is Sodium-dependent serotonin transporter (Homo sapiens, UniProt P31645).
Chain of Sodium-dependent serotonin transporter (P31645 whole entry): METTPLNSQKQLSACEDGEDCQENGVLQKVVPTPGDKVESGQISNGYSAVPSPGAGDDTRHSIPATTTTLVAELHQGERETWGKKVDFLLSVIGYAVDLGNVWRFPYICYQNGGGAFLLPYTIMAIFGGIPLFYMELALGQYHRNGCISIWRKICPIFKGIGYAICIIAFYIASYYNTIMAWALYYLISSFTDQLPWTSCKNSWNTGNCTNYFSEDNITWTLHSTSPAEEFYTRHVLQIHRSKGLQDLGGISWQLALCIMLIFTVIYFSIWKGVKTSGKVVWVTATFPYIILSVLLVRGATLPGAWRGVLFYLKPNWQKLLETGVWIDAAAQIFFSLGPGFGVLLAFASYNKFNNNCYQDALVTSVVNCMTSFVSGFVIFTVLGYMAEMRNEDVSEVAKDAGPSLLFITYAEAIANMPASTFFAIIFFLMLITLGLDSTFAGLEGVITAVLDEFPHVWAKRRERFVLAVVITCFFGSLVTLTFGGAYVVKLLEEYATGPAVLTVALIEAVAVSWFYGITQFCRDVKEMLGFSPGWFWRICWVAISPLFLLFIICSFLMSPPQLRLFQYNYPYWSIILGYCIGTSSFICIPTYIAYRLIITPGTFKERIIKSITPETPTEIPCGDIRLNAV
Assay [13] addresses Adenosine receptor A2a (Homo sapiens, UniProt P29274).
Assay [14] addresses Gamma-aminobutyric acid receptor subunit alpha-1 (Rattus norvegicus, UniProt P62813).
Further: assay procedure not described here.

Chain of Adenosine receptor A2a (P29274 whole entry): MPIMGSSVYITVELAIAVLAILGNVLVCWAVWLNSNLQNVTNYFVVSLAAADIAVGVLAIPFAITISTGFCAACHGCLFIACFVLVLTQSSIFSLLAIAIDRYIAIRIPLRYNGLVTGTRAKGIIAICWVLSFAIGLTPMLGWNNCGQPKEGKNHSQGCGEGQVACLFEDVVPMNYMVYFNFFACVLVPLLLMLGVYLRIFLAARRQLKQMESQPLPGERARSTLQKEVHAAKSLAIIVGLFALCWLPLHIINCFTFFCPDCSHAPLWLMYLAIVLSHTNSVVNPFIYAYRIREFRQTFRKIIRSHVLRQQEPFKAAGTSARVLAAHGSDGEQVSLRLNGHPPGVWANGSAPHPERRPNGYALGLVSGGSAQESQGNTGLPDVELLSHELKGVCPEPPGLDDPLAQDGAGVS
Chain of Vasopressin V2 receptor (P30518 whole entry): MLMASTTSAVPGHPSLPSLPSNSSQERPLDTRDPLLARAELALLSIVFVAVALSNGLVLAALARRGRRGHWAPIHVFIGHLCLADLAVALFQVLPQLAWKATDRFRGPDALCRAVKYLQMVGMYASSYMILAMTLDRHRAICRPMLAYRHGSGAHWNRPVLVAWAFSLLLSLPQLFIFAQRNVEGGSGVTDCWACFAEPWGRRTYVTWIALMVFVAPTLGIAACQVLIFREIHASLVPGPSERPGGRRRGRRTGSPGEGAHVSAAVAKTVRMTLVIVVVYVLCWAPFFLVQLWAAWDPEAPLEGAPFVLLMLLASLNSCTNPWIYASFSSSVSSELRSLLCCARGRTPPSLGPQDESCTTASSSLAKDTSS
Chain of Beta-2 adrenergic receptor (P07550 whole entry): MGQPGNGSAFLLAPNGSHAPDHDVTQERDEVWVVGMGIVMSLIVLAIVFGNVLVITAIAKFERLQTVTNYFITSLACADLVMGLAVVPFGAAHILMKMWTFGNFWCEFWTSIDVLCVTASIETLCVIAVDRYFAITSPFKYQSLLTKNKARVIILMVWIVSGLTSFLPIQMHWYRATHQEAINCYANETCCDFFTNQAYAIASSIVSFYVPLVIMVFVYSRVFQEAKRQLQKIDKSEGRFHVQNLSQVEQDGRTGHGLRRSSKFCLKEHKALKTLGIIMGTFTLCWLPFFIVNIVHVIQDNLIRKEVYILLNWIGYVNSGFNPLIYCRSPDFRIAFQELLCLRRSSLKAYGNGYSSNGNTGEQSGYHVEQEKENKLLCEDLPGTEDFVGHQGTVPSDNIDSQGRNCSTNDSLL
Chain of Gamma-aminobutyric acid receptor subunit alpha-1 (P62813 whole entry): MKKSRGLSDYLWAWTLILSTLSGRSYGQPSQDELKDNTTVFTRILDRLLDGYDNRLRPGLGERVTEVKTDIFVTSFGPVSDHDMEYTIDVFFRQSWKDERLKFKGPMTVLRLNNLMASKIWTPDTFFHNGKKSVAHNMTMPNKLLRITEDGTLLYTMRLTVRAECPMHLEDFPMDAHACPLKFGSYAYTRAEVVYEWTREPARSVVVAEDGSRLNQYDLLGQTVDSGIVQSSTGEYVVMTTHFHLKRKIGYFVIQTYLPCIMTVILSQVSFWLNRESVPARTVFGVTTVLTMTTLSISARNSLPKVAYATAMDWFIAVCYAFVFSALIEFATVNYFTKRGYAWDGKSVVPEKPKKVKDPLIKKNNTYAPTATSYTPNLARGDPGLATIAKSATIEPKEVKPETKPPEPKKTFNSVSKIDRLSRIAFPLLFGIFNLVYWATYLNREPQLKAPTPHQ

With `O=C(OCCN1CCOCC1)c1cccnc1Nc1cccc(C(F)(F)F)c1` [MORNIFLUMATE], the concentration at half-maximal activity (AC50) in [1], in [2], in assay [3], in assay [4], in [5] and in [6] was more than 30 µM in each case. For the same molecule, the AC50 in [7], in assay [8], in assay [9], in [10], in [11] and in [12] was more than 30 µM in each case. Moreover, the AC50 in assay [13] and in assay [14] was more than 30 µM throughout.
In the case of `CN1CCCN=C1COC(=O)C(O)(c1ccccc1)C1CCCCC1` (stereo unspecified) [OXYPHENCYCLIMINE], the AC50 – broadly, the concentration giving half of the maximal activity seen – in assay [1] was more than 10 µM; in assay [2], more than 10 µM; in [3], 0.99 µM; in assay [4], 27.5 µM; in assay [5], more than 10 µM; in assay [6] it was more than 10 µM. The AC50 in [7] is more than 10 µM; in assay [8], more than 10 µM; in assay [9], more than 10 µM; in assay [10], 0.07 µM; in assay [11], more than 10 µM; in assay [12], more than 30 µM. The AC50 in assay [13] and in [14] was more than 10 µM in each case.
Consider `CN1CCC2=C(C1)C(c1ccccc1)c1ccccc12` (stereo unspecified) [PHENINDAMINE], for which the AC50 in assay [1] is 0.771 µM; in assay [2] it was more than 10 µM; in assay [3], 8.1 µM; in assay [4] it was more than 30 µM; in assay [5], more than 10 µM; in [6], more than 10 µM. For the same molecule, the AC50 in assay [7] was more than 10 µM; in assay [8], more than 10 µM; in assay [9], more than 10 µM; in [10], more than 10 µM; in assay [11], more than 10 µM; in assay [12], more than 30 µM. The AC50 in assay [13] and in [14] was more than 10 µM each time.
Regarding `CN1C(=O)CC(c2ccccc2)C1=O` (stereo unspecified) [PHENSUXIMIDE], the AC50 in [1], in assay [2], in assay [3], in assay [4], in assay [5] and in [6] was more than 10 µM in each case. Further, the AC50 in assay [7], in assay [8], in [9], in assay [10], in assay [11] and in assay [12] was more than 10 µM throughout. Further, the AC50 in [13] and in [14] was more than 10 µM each time.
Turning to `O=C(O)CCCc1ccccc1` [PHENYLBUTANOIC ACID], the AC50 in [1] is more than 30 µM; in assay [2] it was more than 30 µM; in [3] it was more than 30 µM; in [4] it was more than 30 µM; in assay [5], more than 30 µM; in [6] it was more than 10 µM. Besides, the AC50 was more than 30 µM in [7]; more than 30 µM in assay [8]; more than 30 µM in assay [9]; more than 30 µM in assay [10]; more than 30 µM in [11]; more than 10 µM in assay [12]. Also, the AC50 in assay [13] was more than 10 µM; in assay [14], more than 30 µM.
`CC(Cc1ccccc1)NCCC(c1ccccc1)c1ccccc1` (stereo unspecified) [PRENYLAMINE]: the concentration at half-maximal activity (AC50) in assay [1] was more than 30 µM; in assay [2], more than 10 µM; in assay [3], 7.9 µM; in [4], more than 30 µM; in [5], more than 10 µM; in assay [6], 3.5 µM. The AC50 in [7] is more than 30 µM; in assay [8] it was more than 10 µM; in assay [9] it was more than 30 µM; in assay [10] it was more than 10 µM; in assay [11] it was more than 30 µM; in assay [12] it was 17.6 µM. Also, the AC50 in assay [13] was more than 30 µM; in assay [14] it was more than 10 µM.
In the case of `Cc1nc2ccc(CN(C)c3ccc(C(=O)N[C@@H](CCC(=O)O)C(=O)O)s3)cc2c(=O)[nH]1` [RALTITREXED], the AC50 in assay [1], in assay [2], in assay [3], in assay [4], in assay [5] and in assay [6] was more than 30 µM each time. Besides, the half-maximal activity concentration (AC50) in assay [7], in assay [8], in [9], in assay [10], in assay [11] and in assay [12] was more than 30 µM throughout. Further, the AC50 in assay [13] and in assay [14] was more than 30 µM throughout.
Turning to `C1COC(NC(C2CC2)C2CC2)=N1` [RILMENIDINE], the AC50 in [1] is more than 30 µM; in [2], more than 10 µM; in assay [3], more than 10 µM; in assay [4] it was more than 30 µM; in assay [5], more than 10 µM; in assay [6], more than 10 µM. The half-maximal activity concentration (AC50) in [7] is more than 30 µM; in assay [8], 1.31 µM; in assay [9] it was more than 30 µM; in assay [10] it was more than 10 µM; in assay [11] it was more than 30 µM; in assay [12] it was more than 30 µM. In addition, the AC50 in [13] was more than 30 µM; in assay [14], more than 10 µM.
Take `CC(=O)NS(=O)(=O)c1ccc(N)cc1` [SULFACETAMIDE]: the AC50 in assay [1], in assay [2], in assay [3], in [4], in assay [5] and in assay [6] was more than 10 µM throughout. In addition, the AC50 in assay [7], in assay [8], in assay [9], in assay [10], in assay [11] and in assay [12] was more than 10 µM each time. The AC50 in [13] and in assay [14] was more than 10 µM each time.
